Values of other authors in patent US11207302B2, “1,2,5-oxadiazoles as inhibitors of indoleamine 2,3-dioxygenase” (Incyte Corporation, priority 2008, dated 2021).

Legend:
[1] = tested on: LLC tumors; conditions: LLC tumors in C57Bl/6 mice, versus placebo
[2] = tested on: P815 tumor; conditions: pre-immunized immune-competent mice challenged with murine tumor cells

Cn1cc(C[C@H](N)C(=O)O)c2ccccc21 [Example 1-MT, 1-methyl-tryptophan]
formation of tumors [1]: markedly delayed
growth of tumors [2]: inhibited
